Assay results reported in patent US7696238B2, “Substituted benzo[d]isoxazol-3-yl amine compounds as analgesics” (Gruenenthal GmbH, priority 2005, dated 2010).

Columns and labels:
[1] = target: T1, KCNQ2/3 ion channel (KCNQ2/3-expressing CHO-K1 cells) (Homo sapiens, UniProt O43525+O43526); assay: Fluorescence assay (FLIPR instrument, membrane potential dye) for substances acting agonistically on the KCNQ2/3 ion channel; type: cell-based; conditions: difference between maximum and minimum values, agonistic action detected from a value of −40 (and below)
T1 construct: expressed in transfected cells; host or cells: CHO-K1
Protocol: Pharmacological Test Methods I. Fluorescence Assay (FLIPR™ Instrument) for the Identification of Substances Acting Agonistically on the KCNQ2/3 Ion Channel
On the day before the experiment, KCNQ2/3-expressing CHO-K1 cells and CHO-K1 empty strain cells were seeded out onto coated poly-D-lysine black/clear plates (Falcon/BD Company; Order No.: 356640) in a concentration of 20000 cells/100 μl MEM alpha, 50 ml FCS, 5.5 ml PIS/G/solution (100×) and then incubated for 20-24 hours in an incubator (37° C., 5% CO2). On the day of the experiment the HBSS/hepes working solution and the FMP/HBSS/hepes mixture (Membrane Potential Assay Kit Red (FMP), bulk format Cat. No. R8123) were initially prepared according to the following protocol:
• 1000 ml 1× HBSS buffer (Hank's Balanced Salt Solution (1×) (Gibco; No. 14025)+10 ml hepes (1M stock solution, pH 7.4; hepes Na salt (Sigma Company; No. H7006-500 g; storage at 4° C. in a refrigerator) 2. 1× FMP/HBSS/hepes working solution: • 6 ml HBSS/hepes buffer are added to 5 ml of the FMP solution stored at −20° C. (preparation see below; thawing out at room temperature). The test substances (2 mM batch solution in 100% DMSO) contained in drug plates (Costar 96-well plates, catalogue No. 3795) were then diluted by adding HBSS/hepes buffer to a concentration of 30 μM (3× concentrated). The assay plates on which the cells grow were washed once with 200 μl HBSS/hepes (Cellwash Washer, Labsystems Company, catalogue No. 5161550) and the remaining volume was removed by tapping out the inverted plate twice. 100 μl of the FMP/HBSS/hepes working solution were then added in each case to the cell plates and incubated for 1 hour in the CO2 incubator at 37° C. and 5% CO2. The measurements are then carried out with a FLIPR III instrument from the Molecular Devices company (96-format, using the 540-590 nm band-pass filter in the #2 localization). In the experimental setup of the FLIPR software, filter #2 should be selected. The cell plates and the substance plates were fed alternately into the input stack. A signal test was carried out in each case with the cell plates before adding the substance. The test substances were then added via the pipetting unit of the FLIPR (added volume 50 μl, 3× concentrated, end concentration 10 μM) to the cavities of the cell plates in a total volume of 150 μl/well. The threshold data of the FLIPR program were as follows:
The pipette tips were washed after each pipetting procedure 3 times with 1% DMSO in water. The times of the measurement intervals after addition of the test substances are as follows:
Total measurement time: 6 min/plate
The test samples were evaluated by calculating the difference between the maximum and minimum values. EC50/IC50 values are calculated using the Graph Pad Prism software.
Preparation of the membrane potential loading buffer (membrane potential assay kit red (FMP), bulk format cat. No. R8123) according to the manufacturer's instructions:
10 ml of the 10× assay buffer (component B) were diluted with 90 ml of sterile water and then adjusted to pH 7.4 with 1.0N NaOH (1× assay buffer). One vessel with the FLIPR membrane potential assay component A was completely dissolved in 100 ml 1× assay buffer and thoroughly mixed for 10 minutes with a magnetic stirrer. 5 ml aliquots were then stored at −20° C. (storage shelf life ca. 2 weeks).
An agonistic action can be detected starting from a value of −40 (and below).

[2] = target: T2, hKCNQ2/3 (stably transfected hKCNQ2/3 CHO-K1 cell line) (Homo sapiens, UniProt O43525+O43526); assay: Voltage clamp (patch-clamp) measurements, current increase relative to retigabin; type: cell-based; conditions: test substance 10 μM at −40 mV; current increase standardized to retigabin (10 μM) effect
T2 construct: expressed in transfected cells; host or cells: CHO-K1
Protocol: II. Voltage Clamp Measurements
In order to confirm electrophysiologically a KCNQ2/3 agonistic action of the substances, patch-clamp measurements [see Hamill O P, Marty A, Neher E, Sakmann B, Sigworth F J: “Improved patch-clamp techniques for high-resolution current recording from cells and cell-free membrane patches”, Pflugers Arch. 1981 August; 391(2):85-100] were carried out in the voltage clamp mode on a stably transfected hKCNQ2/3 CHO-K1 cell line. After formation of the gigaseal the cells were first of all clamped at a holding potential of −60 mV. Depolarising voltage jumps were then applied up to a potential of +20 mV (increment: 20 mV, duration: 1 second), in order to confirm the functional expression of KCNQ2/3 typical currents. The substances were tested at a potential of −40 mV. The current increase induced by retigabin (10 μM) was first of all recorded on each cell at −40 mV as positive control. After completely washing out the retigabin effect (duration: 80 sec) the test substance (10 μM) was applied. The current increase induced by the test substance was standardized to the retigabin effect and stated as relative efficacy (see below).

SMILES: CCCCc1ccc(CNc2noc3cccc(N)c23)cc1 [Example 175, N3-(4-butylbenzyl)-benzo[d]isoxazole-3,4-diamine]
- FLIPR membrane potential fluorescence change (ΔF %, max minus min); negative values indicate KCNQ2/3 agonism [1]: −57.7%
- Voltage clamp: relative efficacy with respect to retigabin [10 μM] [2]: 0.59
